Laboratory results published in patent publication US20040023884A1, “Biologically active peptides from functional domains of bactericidal/permeability-increasing protein and uses thereof” (priority 1993, published 2004).
Square brackets hold non-standard residues; d marks the D form. Ends that are not written are not given here. 1Nal = N[C@@H](Cc1cccc2ccccc12)C(=O)O; d1Nal = N[C@H](Cc1cccc2ccccc12)C(=O)O; Pal = not defined here

Assays:
[1] = system: rough mutant E. coli J5 bacteria; assay: Radial diffusion bactericidal assay, E. coli J5; format: cell-based; settings: radial diffusion; PROBIT analysis; E. coli J5 (rough)
Procedure: BPI proteolytic fragments produced according to Example 1 were screened for bactericidal effects using rough mutant E. coli J5 bacteria in a radial diffusion assay. Specifically, an overnight culture of E. coli J5 was diluted 1:50 into fresh tryptic soy broth and incubated for 3 hours at 37° C. to attain log phase growth of the culture. Bacteria were then pelleted at 3,000 rpm for 5 minutes in a Sorvall RT6000B centrifuge (Sorvall Instruments, Newton, Conn.). 5 mL of 10 mM sodium phosphate buffer (pH 7.4) was added and the preparation was re-pelleted. […] The bacteria were diluted to 4×10^6 CFU/mL in 10 mL of molten underlayer agarose (at approximately 45° C.) and inverted repeatedly to mix in 15 mL polypropylene tubes conventionally used for this purpose.
The entire contents of such tubes were then poured into a level square petri dish and distributed evenly by rocking the dish side-to-side. […] A series of wells were then punched into the hardened agarose using a sterile 3 mm punch attached to a vacuum apparatus. The punch was sterilized with 100% alcohol and allowed to air dry prior to use to avoid contaminating the bacterial culture.
5 or 10 μL of each of the BPI fragments were carefully pipetted into each well. As a negative control, dilution buffer (pH 8.3) was added to a separate well, and rBPI23 at concentrations of 5 μg/mL and 1 μg/mL were also added as positive controls. Each plate was incubated at 37° C. for 3 hours, and then 10 mL of molten overlayer agarose (at approximately 45° C.) was added into the level petri dish, allowed to harden and incubated overnight at 37° C. […] The bacterial zones were measured with a micrometer.

[2] = 3H-heparin binding assay (affinity and capacity); settings: for Heparin Capacity: heparin bound at saturation; for Kd: read-out: Heparin Affinity
Procedure: Briefly, each fragment was added to wells of a 96-well microtiter plate having a polyvinylidene difluoride membrane (Immunobilon-P, Millipore, Bedford, Mass.) disposed at the bottom of the wells. […] Positive control wells contained varying amounts of rBPI23. […] DuPont-NEN, Wilmington, Del.) were made in the blocking buffer and incubated in the BPI peptide-containing wells for one hour at 4° C. The unbound heparin was aspirated and the wells were washed three times with blocking buffer, dried and removed for quantitation in a liquid scintillation counter (Model 1217, LKB, Gaithersburg, Md.). Although BSA in the blocking buffer did show a low affinity and capacity to bind heparin, this was considered physiologically irrelevant and the background was routinely subtracted from the test compound signal.

[3] = system: E. coli 0111:B4 (smooth) bacteria; assay: Radial diffusion bactericidal assay, E. coli 0111:B4; format: cell-based; settings: radial diffusion; PROBIT analysis; E. coli O111:B4 (smooth)
[4] = system: Staphylococcus aureus; assay: Radial diffusion bactericidal assay, Staphylococcus aureus; format: cell-based; settings: radial diffusion; PROBIT analysis; S. aureus

| Substance | pmol added to well to achieve a 30 mm^2 bactericidal zone, E. coli J5 [1] | Heparin Capacity [2] | Kd [2] | pmol added to well to achieve a 30 mm^2 bactericidal zone, E. coli O111:B4 [3] | pmol added to well to achieve a 30 mm^2 bactericidal zone, S. aureus [4] |
| --- | --- | --- | --- | --- | --- |
| IKISGKAβ-(1-naphthyl)KAQKRFLK (IKISGK[1Nal]KAQKRFLK) [BPI.67] | 2,424.30 pmol | 250.4 ng | 108 nM | b (no detectable activity up to 5 μg/well) | b (no detectable activity up to 5 μg/well) |
| KSKVKWLIKLFFKFKSKVKWLIKLFFKF [BPI.101] | 1,329.30 pmol | 210.9 ng | 1900 nM | 3,631.70 pmol | 4,388.20 pmol |
| GWLIQLFHKKIESALRNKMNS [BPI.55] | 299.36 pmol | 166.1 ng | 368 nM | 3,702.60 pmol | 28,204.45 pmol |
| IKISGKWDKAQKRFLK [BPI.66] | 5,846.50 pmol | 111.6 ng | 296 nM | b (no detectable activity up to 5 μg/well) | b (no detectable activity up to 5 μg/well) |
| IKISGKWKAKQRFLK [BPI.56] | 1,387.00 pmol | 135.5 ng | 115 nM | b (no detectable activity up to 5 μg/well) | b (no detectable activity up to 5 μg/well) |
| IKISGKWKAQERFLK [BPI.136] | 18,846.44 pmol |  |  | b (no detectable activity up to 5 μg/well) | b (no detectable activity up to 5 μg/well) |
| KSKVGA(pyridyl)LIQLFHKK (KSKVG[Pal]LIQLFHKK; reading uncertain; also: printed as KSKVGA(pyridyl)LIQLFHKK) [BPI.132] | 4,505.79 pmol |  |  | b (no detectable activity up to 5 μg/well) | b (no detectable activity up to 5 μg/well) |
| KSKVGFLIQLFHKK [BPI.127] | 406.01 pmol |  |  | b (no detectable activity up to 5 μg/well) | b (no detectable activity up to 5 μg/well) |
| BPI.65(Ox) (CIKISGKWKAQKRFLKC; not fully specified (bridges); also: oxidized) | 849.79 pmol |  |  | b (no detectable activity up to 5 μg/well) | 11,960.00 pmol |
| KSKVGAD-2-β-(1-naphthyl)LIQLFHKK (KSKVG[d1Nal]LIQLFHKK; not fully specified) [BPI.131] | 1,438.21 pmol |  |  | b (no detectable activity up to 5 μg/well) | b (no detectable activity up to 5 μg/well) |
| IKISGKAβ-(1-naphthyl)KAAβ-(1-naphthyl)Aβ-(1-naphthyl)RFLK (IKISGK[1Nal]KA[1Nal][1Nal]RFLK) [BPI.122] | 179.89 pmol |  |  | 2,123.57 pmol | 2,631,667.24 pmol |
| KSKVGAD-β-(1-naphthyl)LIQLFHKK (KSKVG[d1Nal]LIQLFHKK) [BPI.129] | 1,685.10 pmol |  |  | b (no detectable activity up to 5 μg/well) | b (no detectable activity up to 5 μg/well) |
| KSKVGWLIYLFHKK [BPI.125] | 428.85 pmol |  |  | 11,306.79 pmol | b (no detectable activity up to 5 μg/well) |
| KSKVGWLIQLFHKAβ-(1-naphthyl) (KSKVGWLIQLFHK[1Nal]) [BPI.111] | 969.00 pmol |  |  | 7,232.08 pmol | 12,467.42 pmol |
| KSKVGFDLIQLPHKK [BPI.128] | 2,271.14 pmol |  |  | b (no detectable activity up to 5 μg/well) | b (no detectable activity up to 5 μg/well) |
| KSKVGWLIQLFHKW [BPI.108] | 661.05 pmol |  |  | 306,965.11 pmol | 1,413,131,872.57 pmol |
| KSKVGWDLIQLFHKK [BPI.126] | 1,979.97 pmol |  |  | b (no detectable activity up to 5 μg/well) | b (no detectable activity up to 5 μg/well) |
| KWQLRSKGKIKIFKA [BPI.114] | 1,696.20 pmol |  |  | b (no detectable activity up to 5 μg/well) | b (no detectable activity up to 5 μg/well) |
| IKISGKWKAAβ-(1-naphthyl)Aβ-(1-naphthyl)RFLK (IKISGKWKA[1Nal][1Nal]RFLK) [BPI.121] | 154.35 pmol |  |  | 1,856.40 pmol | 941,388.07 pmol |
| IKISGKWKAWKRAβ-(1-naphthyl)LKK (IKISGKWKAWKR[1Nal]LKK) [BPI.105] | 65.35 pmol |  |  | 206.98 pmol | 6,260.97 pmol |
| KSKVGW(p-amino)LIFLFHKK (KSKVG[p‑amino‑tryptophan]LIFLFHKK) [BPI.123] | 247.20 pmol |  |  | 6,651.23 pmol | b (no detectable activity up to 5 μg/well) |
| KSKVGA2-β-(1-naphthyl)LIQLFHKK (KSKVG[1Nal]LIQLFHKK; not fully specified; printed as KSKVGA2-β-(1-naphthyl)LIQLFHKK) [BPI.130] | 325.75 pmol |  |  | 4,377.92 pmol | b (no detectable activity up to 5 μg/well) |
| Aβ-(1-naphthyl)Aβ-(1-naphthyl)RFLKF ([1Nal][1Nal]RFLKF) [BPI.140] | 84.76 pmol |  |  | 605.34 pmol | 9,977.71 pmol |
